Data reported in patent US8710246B2, “Substituted thiophene pentamers” (Biochromix Newco AB, priority 2008, dated 2014).
Entries after “also recorded” stand apart in the source; their conditions may differ.

Legend:
[1] = tested on: Human Aβ38, Aβ40 and Aβ42; assay: 30 days treatment, human Aβ determinations in CSF and brain homogenate SDS fraction (Mesoscale immunosorbent assay); format: in vivo, mice
Procedure: Starting at 8 months of age, female hAPPSL mice were treated with vehicle only or p-FTAA in 3 dosages for 30 days. The Test Item (T.I.) p-FTAA was administered in 3 dosages in Vehicle. 48 hAPP Tg mice plus 4 reserves allocated to 4 different treatment groups were treated with either vehicle only (control) or with p-FTAA in dosages of 0.1 mg/kg/day, 1 mg/kg/day, or 10 mg/kg/day. As an additional control, 12 nTg littermates of the hAPPSL mice (plus 1 reserve) were treated with vehicle only. Vehicle and T.I.s were administered twice daily intra peritoneal (i.p.) for 30 days.
Human Aβ38, Aβ40 and Aβ42 were determined in homogenates of the left brain hemispheres and in CSF samples of all Tg animals by an immunosorbent assay from Mesoscale Discovery
48 hAPP Tg mice plus 4 reserves allocated to 4 different treatment groups were treated with either vehicle only (control) or p-FTAA. As an additional control, 12 nTg littermates of the hAPPSL mice (plus 1 reserve) were treated with vehicle only. Tg hAPPSL mice with a C57BL/6xDBA background and corresponding nTg littermates at an age of 8 months (±2 weeks) were randomly assigned to the treatment groups.
Left hemi-brain samples (without cerebellum) of Tg animals were homogenized and separated. SDS fraction was prepared, after thawing, hemispheres were homogenized with the Homogenizer “Ultra Turrax T8” at highest speed in TBS (20 mM Tris, 137 mM NaCl, pH=7.6; containing protease inhibitor cocktail; 100 mg brain wet weight per ml TBS). One aliquot (1 ml) was centrifuged (74,200×g for 1 h at 4° C.). The pellets were suspended in 1 ml SDS (2% SDS in Aqua bidest), centrifuged as above and the supernatants were kept at −20° C. (SDS fraction).
In the brain homogenate SDS fraction and in CSF of each Tg mouse, human Aβ38, Aβ40 and Aβ42 levels were measured with a Aβ-kit from Mesoscale Discovery. Aβ levels were evaluated in comparison to a peptide standard as pg/mg brain (wet weight) or pg/ml CSF.
Descriptive statistical analysis was performed on all evaluated parameters. Data were represented as mean±standard deviation (SD). Grubb's test was used to detect outliers. Normality distribution of the values was tested with Kolmogorov Smirnov normality distribution test. Group differences between all Tg groups were calculated by a parametric ANOVA followed by a Bonferroni post test.

[2] = tested on: Aβ38, Aβ40 or Aβ42; assay: 14 days treatment, DEA extraction of soluble amyloid beta from brain homogenates; format: in vivo; conditions: data not shown
Excerpt: We also noted, data not shown, that p-FTAA treatment for 14 days, in 4 months old female […] transgenic mice, led to decreased Aβ38, Aβ40 or Aβ42 levels in the DEA Extraction of [soluble] Amyloid beta from brain homogenates.

[3] = tested on: Aβ deposits; assay: Long term in vivo effects on amyloid plaques in transgenic mice, cranial window, multiphoton spectroscopy; conditions: tail vein injection, 10 mg/kg
Excerpt: This long lasting binding to the plaques is advantageous for a long term therapeutic effect of the inventive compounds.

[4] = tested on: hAPPSL transgenic mice; assay: 14 days treatment, general observations, tolerance to compound (toxicity); format: in vivo; conditions: for animals that died premature: ip 14 days
Procedure: Vehicle: Phosphate Buffered Saline (PBS; 6.7 mM PO4, 155 mM NaCl, pH=7.3-7.5) (BioWhittaker PBS from Lonza).
T:I: p-FTAA, Mw=617 g/mol, diluted in vehicle from stock solution in deionized water (10 mg/ml).
Tg hAPPSL: Transgenic hAPPSL mice over-expressing hAPP(751) under the control of the murine Thy-1 promoter with a C57BL/6xDBA background.
Starting at 4 months of age, female hAPPSL mice were treated with vehicle only or p-FTAA in 3 dosages for 14 days. 40 hAPP Tg mice plus 4 reserves allocated to 4 different treatment groups were treated with either vehicle only (control) or with p-FTAA in dosages of 0.1 mg/kg/day, 1 mg/kg/day, or 10 mg/kg/day. Vehicle and T.I.s were administered twice daily intra peritoneal (ip) for 14 days.
In total 44 animals allocated to 4 treatment groups were included in the study. 4 animals died premature due to unknown reason: 1 animal each of the 1 mg/kg and 10 mg/kg T.I. groups and 2 animals from the control group.

[5] = target: T1, Aβ peptide 1-42 (Homo sapiens, UniProt P05067); assay: In vitro fibrillation of Aβ peptide 1-42 followed by TEM; format: biochemical; conditions: for fibrillation morphology by TEM: 100 μM compound, 20 μM Aβ 1-42, 37° C.
T1 construct: Aβ peptide 1-42 was dissolved in hexafluoroisopropanol
T1 sequence (P05067 672-713 limits assumed): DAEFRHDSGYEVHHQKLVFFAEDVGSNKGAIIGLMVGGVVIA
Procedure: Aβ peptide 1-42 was dissolved in hexafluoroisopropanol to a concentration of 1 mg/mL and further diluted to 20 μM in Tris-HCl 5 mM, 75 mM NaCl. The inventive compounds F and G were added in concentrations from 10 to 100 μM and the samples, including references without the inventive compounds, were incubated at 37° C. to initiate fibrillation. After Oh, 20 h and 66 h aliquots were withdrawn, deposited on formvar-carbon coated TEM grids and negatively stained using uranylacetate. A Phillips CM200 run at 200 kV was used to study the progress of fibrillation in the different samples. […] (at Oh). […] These aggregates were covering most of the TEM grid and no smaller fibril or oligomer like structures could be seen. After 66 h of incubation no major change in morphology compared to the 20 h samples could be seen, sheets with separate visible fibrils were found at high density on the grid, of a typical morphology illustrated in FIG. 3.

`O=C(O)Cc1cc(-c2ccc(C(=O)O)s2)sc1-c1ccc(-c2sc(-c3ccc(C(=O)O)s3)cc2CC(=O)O)s1` [Compound F] was tested, and the “Aβ38, Aβ40 and Aβ42 levels in CSF compared to vehicle” value ([1]; 0.1 mg/kg/day ip for 30 days) was “lower mean Aβ levels but statistical significance was observed for Aβ38 only”, the “Aβ38, Aβ40 and Aβ42 levels in CSF compared to vehicle” value ([1]; 1 mg/kg/day ip for 30 days) was “did not differ significantly from the vehicle control” and the “Aβ38, Aβ40 and Aβ42 levels in CSF compared to vehicle” value ([1]; 10 mg/kg/day ip for 30 days, 8 months old female hAPPSL mice, listed as p-FTAA) was “significantly decreased; also recorded: highly significant”. The “Aβ38, Aβ40 and Aβ42 levels in SDS brain homogenate fraction compared to vehicle” value ([1]; 10 mg/kg/day ip for 30 days, listed as p-FTAA) was “significantly decreased”, the “Aβ38, Aβ40 or Aβ42 levels in DEA extraction of soluble amyloid beta from brain homogenates” value ([2]; 4 months old female hAPPSL mice) was “decreased” and the “dose group with the strongest effect on DEA soluble Aβ” value [2] was “strongest for 10 mg/kg/day group”. The “binding to Aβ deposits in living mouse brain one week after injection” value ([3]; one week after injection) was “binding of the inventive compounds to AP deposits could still be observed; also recorded: bound to Aβ deposits in living mouse brain one week after injection”, the “crossing of the blood brain barrier after intravenous injection” value ([3]; transgenic mice with AD-like pathology) was “readily cross the blood brain barrier” and the “animals that died premature” value ([4]; 1 mg/kg group) was 1 animal. For the same compound, the “animals that died premature” value ([4]; 10 mg/kg group) was 1 animal, the “attribution of premature deaths to the compound” value ([4]; 0.1, 1, 10 mg/kg/day ip twice daily for 14 days, 4 months old female hAPPSL mice) was “cannot be attributed to p-FTAA” and the “fibrillation morphology by TEM” value ([5]; 20 h) was “no dense aggregates resembling those in the reference sample”. For the same compound, the “fibrillation morphology by TEM” value ([5]; 66 h) was “no separate fibrils could be found; also recorded: dense aggregates where no fibrils can be seen” and the “effect on the fibrillation of Aβ peptide 1-42” value ([5]; overall conclusion, 20 h and 66 h) was “major effect”.
